This note sets out measurements from the OPERA property sets (Mansouri et al. 2018).

The structures appear in SMILES notation. Converted amounts (≈) assume the structure as drawn.

Details in the first series: not given
`O=C(O)COc1ccc(Cl)cc1CO` had a solubility of 9230 µM (≈ 2000 µg/mL).

On to `O=C(NC(=O)c1c(F)cccc1F)Nc1ccc(CO/N=C(/c2ccc(Cl)cc2)C2CC2)cc1`, for which the lipophilicity (logP) was found to be 6.97.

As to `CCOCCOC(=O)C(C)Oc1ccc(Oc2ncc(C(F)(F)F)cc2Cl)cc1` (stereo not given), the lipophilicity (logP) turned out to be 4.33.

For `CCN(CC)C(=O)SCc1ccccc1Cl`, the lipophilicity (logP) stood at 3.43.

`CC1(C)C(C=C(Cl)Cl)C1C(=O)OC(C#N)c1ccc(F)c(Oc2ccccc2)c1` (stereo not given) showed a logP of 5.95.

In the case of `CCCCCOC(=O)COc1cc(N2C(=O)C3=C(CCCC3)C2=O)c(F)cc1Cl`, the log partition coefficient (logP) was 4.99.

The compound `Fc1ccc(C2(Cn3cncn3)OC2c2ccccc2Cl)cc1` (stereo not given) gave a lipophilicity (logP) of 3.44.

With `C#CCC1=C(C)C(OC(=O)C2C(C=C(C)C)C2(C)C)CC1=O` (stereo not given), the log partition coefficient (logP) was 4.49.

Compound `CCCCC(CC)CN1C(=O)C2C3C=CC(C3)C2C1=O` (stereo not given) had a logP of 3.7.

For the compound `CCCCCCCCn1sccc1=O`, the logP turned out to be 2.45.

With `CCOc1ccc(C(C)(C)COCc2cccc(Oc3ccccc3)c2)cc1`, the logP was determined as 7.05.

For the compound `CCOC(=O)CCN(SN(C)C(=O)Oc1cccc2c1OC(C)(C)C2)C(C)C`, the logP was found to be 4.3.

As for `CCOP(=S)(OCC)OP(=S)(OCC)OCC`, the log partition coefficient (logP) was found to be 3.99.

Compound `O=C(NC(=O)c1c(F)cccc1F)Nc1ccc(Cl)c(Oc2ncc(C(F)(F)F)cc2Cl)c1` registered a lipophilicity (logP) of 5.1.

`CCCOC(=O)c1ccc(C(=O)OCCC)nc1`: the lipophilicity (logP) is 3.57.

Turning to `CCOC(=O)CCCOc1ccc(Cl)cc1C`, the log partition coefficient (logP) was 4.26.

Turning to `CCOP(=S)(OCC)OC(Cl)C(Cl)(Cl)Cl` (stereo not given), the logP is 4.59.

Regarding `CC(Oc1ccc(Oc2ccc(Cl)cc2Cl)cc1)C(=O)O` (stereo not given), the logP stood at 4.58.

`CC1(C)CON(Cc2ccccc2Cl)C1=O` showed a logP of 2.5.

Regarding `O=C1CCc2cccc3c2N1CC3`, the logP was determined as 1.57.

`CC1COc2ccccc2N1C(=O)C(Cl)Cl` (stereo not given) came in with a logP of 2.7.

In turn, `COCCOc1ccccc1S(=O)(=O)N=C(O)N=c1nc(OC)[nH]c(OC)n1` showed a lipophilicity (logP) of 2.04.

For `O=C1C(Cl)C(CCl)CN1c1cccc(C(F)(F)F)c1` (stereo not given), the lipophilicity (logP) was determined as 3.36.

With `CCCSP(=O)(OCC)SCCC`, the logP was found to be 3.59.

As to `CCCCCCCCSCCO`, the logP turned out to be 3.64.

`CNc1nc(NC(C)C)nc(SC)n1` had a lipophilicity (logP) of 2.38.

In the case of `O=C1c2ccccc2C(=O)C1C(=O)C(c1ccccc1)c1ccccc1`, the solubility stood at 0.881 µM (≈ 0.3 µg/mL).

`CCCSP(=S)(OCC)Oc1ccc(Cl)cc1Cl` (stereo not given) registered a logP of 5.67.

Compound `OC(c1ccc(F)cc1)(c1cncnc1)c1ccccc1Cl` (stereo not given) yielded a logP of 3.18.

In turn, `CCC1OCC(COc2ccc(Oc3ccccc3)cc2)O1` (stereo not given) came in with a logP of 4.35.

As for `N#CC(=NOCC1OCCO1)c1ccccc1`, the lipophilicity (logP) was 2.76.

`c1coc(-c2nc3ccccc3[nH]2)c1` displayed a logP of 2.67.

`CCOC(=O)Nc1cccc(OC(=O)Nc2ccccc2)c1` displayed a logP of 3.39.

Turning to `CCOS(=O)(=O)c1ccc2c(c1)C(C)(C)CO2`, the logP is 2.41.

`C=CCNC(=O)CN(CC=C)C(=O)C(Cl)Cl`: the log partition coefficient (logP) was found to be 1.

For the compound `COc1ccc(C(=CC(=O)N2CCOCC2)c2ccc(Cl)cc2)cc1OC`, the logP amounted to 2.68.

Staying with this series, now noted: 20 °C.
`CNC(=O)O/N=C(\C)C(C)S(C)(=O)=O` (stereo not given) showed a solubility of 940000 µM (≈ 209000 µg/mL).

With `COc1cccc(N(C)C(=S)Oc2cccc(C(C)(C)C)c2)n1`, the solubility was 0.968 µM (≈ 0.32 µg/mL).

`CCc1cccc(C)c1N(COC(C)C)C(=O)CCl`: the solubility amounted to 648 µM (≈ 184 µg/mL).

Take `CNC(=O)Oc1cc(C)c(SC)c(C)c1`: the solubility is 72.9 µM (≈ 16.4 µg/mL).

The compound `CCCCOC(=O)C1(O)c2ccccc2-c2ccccc21` yielded a solubility of 129 µM (≈ 36.5 µg/mL).

Compound `Cc1ccccc1C(=O)Nc1cccc(OC(C)C)c1` registered a solubility of 47.2 µM (≈ 12.7 µg/mL).

Compound `CCCSP(=O)(OCC)Oc1cnn(-c2ccc(Cl)cc2)c1` (stereo not given) came in with a solubility of 91.5 µM (≈ 33 µg/mL).

With `CCCCCCC(C)OC(=O)COc1nc(F)c(Cl)c(N)c1Cl` (stereo not given), the solubility was 0.245 µM (≈ 0.09 µg/mL).

`CC#Cc1cc(C)nc(Nc2ccccc2)n1` yielded a solubility of 13.9 µM (≈ 3.1 µg/mL).

`CC1COc2ccccc2N1C(=O)C(Cl)Cl` (stereo not given) came in with a solubility of 76.9 µM (≈ 20 µg/mL).

The compound `CCC(C)c1ccccc1OC(=O)NC` (stereo not given) yielded a solubility of 3180 µM (≈ 660 µg/mL).

For `COP(=O)(OC)O/C(=C\Cl)c1ccc(Cl)cc1Cl`, the solubility turned out to be 392 µM (≈ 130 µg/mL).

`CCOP(=O)(Oc1ccc(Cl)cc1Cl)Oc1ccc(Cl)cc1Cl` yielded a solubility of 1.68 µM (≈ 0.7 µg/mL).

Turning to `Cc1nn(C)c(OCC(=O)c2ccccc2)c1C(=O)c1ccc(Cl)cc1Cl`, the solubility was 2230 µM (≈ 900 µg/mL).

Compound `CNC(=O)Oc1ccccc1OC(CCl)OC` (stereo not given) displayed a solubility of 5010 µM (≈ 1300 µg/mL).

`C=CCNC(=O)CN(CC=C)C(=O)C(Cl)Cl` showed a solubility of 91300 µM (≈ 24200 µg/mL).

The same series, now with this note: 23 °C.
In turn, `CCN(CC)C(=O)SCc1ccccc1Cl` returned a solubility of 93.1 µM (≈ 24 µg/mL).

The series is the same for the next values; noted with them: 25 °C.
The compound `CCCCCOC(=O)COc1cc(N2C(=O)C3=C(CCCC3)C2=O)c(F)cc1Cl` displayed a solubility of 0.446 µM (≈ 0.189 µg/mL).

The compound `C#CCC1=C(C)C(OC(=O)C2C(C=C(C)C)C2(C)C)CC1=O` (stereo not given) registered a solubility of 26.6 µM (≈ 8 µg/mL).

As for `CN(C)NC(=O)CCC(=O)O`, the solubility came to 624000 µM (≈ 100000 µg/mL).

For `CCOP(=O)(N=C1SCC(C)S1)OCC` (stereo not given), the solubility amounted to 212 µM (≈ 57 µg/mL).

`CCOc1cc(Oc2ccc(C(F)(F)F)cc2Cl)ccc1[N+](=O)[O-]`: the solubility came to 0.298 µM (≈ 0.108 µg/mL).

Regarding `O=C(OCc1ccccc1)c1sc(Cl)nc1C(F)(F)F`, the solubility stood at 1.55 µM (≈ 0.5 µg/mL).

Compound `Oc1ccccc1-c1ccccc1` gave a solubility of 4110 µM (≈ 700 µg/mL).

With `O=C(O)CCCOc1ccc(Cl)cc1Cl`, the solubility stood at 213 µM (≈ 53 µg/mL).

The compound `CC(C)C1(C)N=C(c2ncccc2C(=O)O)NC1=O` (stereo not given) came in with a solubility of 43300 µM (≈ 11300 µg/mL).

Regarding `CCOC(=O)C1(C)OC(=O)N(c2cc(Cl)cc(Cl)c2)C1=O` (stereo not given), the solubility was 24.1 µM (≈ 8 µg/mL).

With `O=c1ccc(=O)[nH][nH]1`, the solubility was found to be 53500 µM (≈ 6000 µg/mL).

`CCC1OCC(COc2ccc(Oc3ccccc3)cc2)O1` (stereo not given) registered a solubility of 16.3 µM (≈ 4.9 µg/mL).

As for `CCCCOC(=O)N(C)SN(C)C(=O)Oc1cccc2c1OC(C)(C)C2`, the solubility was determined as 27.4 µM (≈ 10.5 µg/mL).

Still in this series, the particulars now being: pH 5.0; 25 °C.
Compound `COc1cc(OC)nc(N=C(O)NS(=O)(=O)Nc2ccccc2C(=O)C2CC2)n1` displayed a solubility of 0.403 µM (≈ 0.17 µg/mL).

The same series, now with this note: pH 7.0; 20 °C.
As to `OC(Cn1cncn1)(c1ccc(F)cc1)c1ccccc1F` (stereo not given), the solubility amounted to 431 µM (≈ 130 µg/mL).

The series is the same for the next values; noted with them: pH 7.0; 25 °C.
Compound `OC(c1ccc(F)cc1)(c1cncnc1)c1ccccc1Cl` (stereo not given) registered a solubility of 82.6 µM (≈ 26 µg/mL).

Staying with this series, now noted: pH 9.0; 20 °C.
As for `Cc1ccc(N=c2sccn2C)c(C)c1`, the solubility was 687 µM (≈ 150 µg/mL).

A word on the solubility: it is the concentration that dissolves in the medium under given conditions. The low end stands for a poorly soluble substance, the high end for a readily soluble substance. Broadly, the logP is the decadic logarithm of the partition coefficient of the neutral form, usually between octanol and water. A higher logP goes with higher lipophilicity.
